Test: molar heat capacity at constant pressure
Details: 101.33 kPa, Small (less than 1 g) adiabatic calorimetry

CC(C)(C)c1ccc(Oc2ccc([N+](=O)[O-])cc2)cc1 [1-(tert-butyl)-4-(4-nitrophenoxy)benzene]
molar heat capacity at constant pressure [J/K/mol]
Details	Crystal	Glass
88.13 K	121.72	–
88.7 K	–	125.63
88.93 K	122.72	–
89.5 K	–	126.55
89.73 K	123.64	–
90 K	123.8	–
90.3 K	–	127.29
90.54 K	124.63	–
91.1 K	–	128.38
91.34 K	125.55	–
91.91 K	–	129.29
92.15 K	126.55	–
92.71 K	–	130.12
92.95 K	127.29	–
93.52 K	–	131.12
93.75 K	128.13	–
94.32 K	–	132.03
94.56 K	129.21	–
95.13 K	–	132.87
95.36 K	130.12	–
95.93 K	–	133.7
96.17 K	131.04	–
96.73 K	–	134.69
96.97 K	132.03	–
97.54 K	–	135.44
97.77 K	132.87	–
98.34 K	–	136.44
98.58 K	133.78	–
99.14 K	–	137.35
99.38 K	134.61	–
99.95 K	–	138.35
100 K	135.53	–
100.19 K	135.53	–
100.75 K	–	139.43
100.99 K	136.44	–
101.55 K	–	140.18
101.79 K	137.27	–
102.35 K	–	141.01
102.59 K	138.27	–
103.16 K	–	142.01
103.4 K	139.18	–
103.96 K	–	142.76
104.2 K	140.1	–
104.76 K	–	143.67
105 K	141.18	–
105.56 K	–	144.67
105.8 K	141.93	–
106.36 K	–	145.42
106.6 K	142.84	–
107.16 K	–	146.17
107.4 K	143.67	–
107.96 K	–	147.25
108.21 K	144.51	–
108.77 K	–	148.25
109.01 K	145.5	–
109.57 K	–	149
109.81 K	146.25	–
110 K	146.42	–
110.37 K	–	149.83
110.61 K	147.17	–
111.17 K	–	150.74
111.42 K	148.08	–
111.97 K	–	151.66
112.22 K	149	–
112.78 K	–	152.74
113.02 K	149.74	–
113.58 K	–	153.57
113.82 K	150.57	–
114.38 K	–	154.32
114.63 K	151.57	–
115.18 K	–	155.23
115.43 K	152.57	–
115.99 K	–	156.23
116.23 K	153.24	–
116.79 K	–	156.89
117.04 K	154.32	–
117.59 K	–	157.81
117.84 K	155.15	–
118.4 K	–	158.72
118.64 K	155.98	–
119.2 K	–	159.8
119.45 K	156.81	–
120 K	157.31	160.64
120.25 K	157.89	–
120.81 K	–	161.47
121.06 K	158.56	–
121.61 K	–	162.22
121.86 K	159.64	–
122.41 K	–	163.13
122.66 K	160.3	–
123.21 K	–	164.21
123.47 K	161.22	–
124.02 K	–	164.88
124.27 K	162.13	–
124.82 K	–	165.96
125.07 K	162.96	–
125.62 K	–	166.54
125.87 K	163.79	–
126.42 K	–	167.37
126.68 K	164.71	–
127.23 K	–	168.2
127.48 K	165.54	–
128.03 K	–	169.2
128.28 K	166.54	–
128.83 K	–	170.03
129.09 K	167.45	–
129.63 K	–	170.95
129.89 K	168.2	–
130 K	168.2	–
130.43 K	–	171.94
130.69 K	169.03	–
131.24 K	–	172.53
131.49 K	170.03	–
132.04 K	–	173.27
132.3 K	170.86	–
132.84 K	–	174.35
133.1 K	171.69	–
133.64 K	–	175.19
133.9 K	172.77	–
134.44 K	–	176.02
134.71 K	173.61	–
135.25 K	–	176.93
135.51 K	174.44	–
136.05 K	–	177.85
136.31 K	175.1	–
136.85 K	–	178.76
137.11 K	176.02	–
137.65 K	–	179.76
137.92 K	176.85	–
138.45 K	–	180.67
138.72 K	177.93	–
139.25 K	–	181.5
139.52 K	178.68	–
140 K	179.01	–
140.06 K	–	182.42
140.32 K	179.43	–
140.86 K	–	183.25
141.12 K	180.26	–
141.66 K	–	184
141.93 K	181.34	–
142.46 K	–	184.83
142.72 K	181.92	–
143.25 K	–	185.83
143.53 K	182.83	–
144.06 K	–	186.66
144.33 K	183.83	–
144.86 K	–	187.57
145.13 K	184.75	–
145.66 K	–	188.41
145.93 K	185.66	–
146.46 K	–	189.32
146.73 K	186.49	–
147.26 K	–	190.15
